Legend:
[1] = Solubility in water (description); format: physicochemical
standard-fed rats = assay: Standard-fed rats, oral tungstate in drinking water; format: in vivo, male Wistar rats
Excerpt: (§1) For the present experiments, male Wistar rats (IFFA CREDO), weighing 0.20–0.22 kg, were caged individually in a 12:12-h light-dark cycle, temperature and humidity controlled environment. After an adaptation period of 1 week the animals were divided into two dietary groups. One group was fed standard chow diet (2.7% in fat content, type AO4 from Panlab, Barcelona, Spain) and the second group was fed a cafeteria diet (30% in fat content). The cafeteria diet consisted of a daily offering of cookies, liver pate, bacon, standard chow and whole milk supplemented with 333 g/l sucrose and 10 g/l of a mineral and vitamin complex (Gevral, Cynamid Ibérica, Madrid, Spain). All the food items were weighed and presented in excess.
An initial set of forty rats were divided into two sets of dietary conditions, control (standard diet, n=15) and cafeteria (cafeteria diet, n=25), and fed for 30 days. […]
The treatment was carried out for 32 days. […] Selective food items consumption (corrected by the amount of water lost for each) and the weight of all animals were recorded daily. […]
Remaining rats (n=19) were withdrawn the tungstate treatment, but maintained the dietary conditions, in order to start a 35 day recovery period. […] Selective food items consumption (corrected by the amount of water lost for each) and the weight of all animals were recorded daily.

cafeteria-fed rats = assay: Diet-induced obesity (cafeteria diet) rat model, oral tungstate in drinking water; format: in vivo, male Wistar rats
Excerpt: The so-called “cafeteria diet” consists of an offering of freshly and highly palatable supermarket food items with high fat and/or carbohydrate content in addition to standard laboratory chow. […] Moreover, it is also known that ingestion of a cafeteria diet results in increased thermogenesis and fat deposition.
as §1
An initial set of forty rats were divided into two sets of dietary conditions, control (standard diet, n=15) and cafeteria (cafeteria diet, n=25), and fed for 30 days. In order to evaluate the effects of tungstate treatment, animals from each condition were divided into two new subsets: tungstate treated and tungstate untreated groups (simply treated and untreated in the following). The treated rats were given a solution of 2 mg/ml of sodium tungstate dihydrate in distilled water.
The treatment was carried out for 32 days. Blood glucose measurements as well as blood samples were collected before (days 0–30), during (days 31–62) and at the end of the experimental period. Selective food items consumption (corrected by the amount of water lost for each) and the weight of all animals were recorded daily.
At the end of the treatment period, rats from treated (n=8) and untreated (n=7) cafeteria-fed groups and rats from both treated (n=3) and untreated (n=3) standard-fed groups were killed and several tissues (gastrocnemius muscle, intercapular brown adipose tissue (iBAT), epididimal white adipose tissue (WAT), liver, pancreas and brain) were excised, weighed, cleaned and rapidly frozen in liquid nitrogen or fixed in formol 10% for future studies.
Remaining rats (n=19) were withdrawn the tungstate treatment, but maintained the dietary conditions, in order to start a 35 day recovery period. After this time animals were killed and processed as above. Selective food items consumption (corrected by the amount of water lost for each) and the weight of all animals were recorded daily.
The data obtained in this study allowed to establish an obesity criteria. […]

With O.O.[Na+].[Na+].[O]=[W](=[O])([O-])[O-] [sodium tungstate dihydrate] the solubility in water [1] was “easily dissolved in water”, the body weight increase (standard-fed rats; 2 mg/ml sodium tungstate dihydrate in distilled water, treatment period days 31-62, vs untreated) was “significantly diminished body weight increase” and the “body weight after withdrawal of treatment (reversibility)” value (standard-fed rats; recovery period days 63-97) was “started to gain body weight quickly”. For the same compound, the food intake (cafeteria-fed rats; cafeteria diet rat model, during weight loss) was “without decrease of food intake”, the body weight increase (cafeteria-fed rats; cafeteria-fed rats, 2 mg/ml sodium tungstate dihydrate in distilled water, treatment period days 31-62, vs untreated) was “significantly diminished body weight increase” and the “body weight increase difference between treated and untreated rats at day 97” value (cafeteria-fed rats; cafeteria-fed rats, end of 35 day recovery period) was “quite important”. For the same compound, the “body weight after withdrawal of treatment (reversibility)” value (cafeteria-fed rats; cafeteria-fed rats, recovery period days 63-97) was “started to gain body weight quickly”.

From US7122209B2, “Oral compositions for the treatment of non-diabetic obese mammals, including humans” (Quimica Farmaceutica Bayer S.A., priority 2001, dated 2006)
